From PMC11412489, “Coumarin derivatives as new anti-biofilm agents against Staphylococcus aureus” (PLOS ONE, 2024)
“Also recorded” adds a separate entry of the source. Where two headings read alike, the source gives them in different places.

Assays:
Format in all cases: cell-based, Staphylococcus aureus
[1] = system: biofilm of S. aureus ATCC 6538; assay: 96-well plate crystal violet assay for biofilm inhibition; conditions: for inhibition at 3.125 µg/mL / inhibition at 6.25 µg/mL / inhibition at 12.5 µg/mL / inhibition at 25 µg/mL / inhibition at 50 µg/mL / inhibition at 100 µg/mL: Staphylococcus aureus, ATCC6538
Protocol: The quantitative determination of biofilm inhibition was carried out by the crystal violet assay on a sterile 96-well plate with slight modifications. The glycerol stock of S. aureus was revived overnight at 37°C at 80 rpm. The overnight culture was then diluted 100 folds in fresh BHI broth, supplemented with 0.25% glucose. The cell density was adjusted to 1×10^7 and 195μL of the cell suspension was added in 96-well plate. […] Following that, the plate was washed with sterile distilled water in order to decant the non-adherent cells, and media. The plate was then dried at 60°C for 1 hour, and 200 μL of 0.1% (w/v) crystal violet was added to stain biofilm for 20 minutes. The plate was washed again, air dried, and dispensed 30% (v/v) acetic acid in each well to dissolve the biofilm. The inhibition of biofilm formation was analyzed by measuring the absorbance at 595 nm using the microplate reader (Multiskan Sky, Thermo Scientific, USA). The percent inhibition of biofilm formation was calculated via the following formula: 100−ƛTreated−ƛBlank/ƛControl−ƛBlank×100 Whereƛ=absorbance

S. aureus biofilm = assay: Atomic force microscopy analysis of biofilm disruption; conditions: compared to control S. aureus cells, 24 hours
Protocol: The size and structure of disrupted biofilm was analyzed. Briefly, a pure single colony of S. aureus was inoculated in BHI broth and grown for 18–24 hours at 37°C. Following incubation, the cells were diluted in BHI broth, and density was adjusted to 1×10^7 before loading on a sterile silicon chip placed in 24-well plate, then silicon chips were treated with active compounds. The plate was then sealed, and placed in an incubator for 24 hours at 37°C. After incubation, the treated silicon chips were washed with autoclaved distilled water thrice, air dried, and the samples were analyzed by atomic force microscope (Agilent Technologies, USA).

S. aureus = assay: Antibacterial activity (bacterial growth inhibition); conditions: at 100 μg/mL; for inhibition at 100 µg/mL: Staphylococcus aureus, read-out: Antibacterial Activity (% Inhibition ± SEM)
[2] = system: biofilm cells of the S. aureus strain (ATCC 6538); assay: Biofilm analysis by fluorescence microscopy (SYTO-9/PI); conditions: SYTO-9/PI staining, S. aureus ATCC 6538, 24 hours
Protocol: Briefly, 1×10^7 cells were loaded in 96-well plate, and treated with active compounds. Plate was sealed, and incubated for 24 hours at 37°C. Following incubation, plate was washed with sterile distilled water, and cells were stained with […] SYTO-9 and 5 μM PI, for 30 minutes in dark at room temperature. After incubation, the wells were washed again, and air dried. Images were taken, and then visualized by Nikon Eclipse TE2000, USA [23]. Propidium Iodide (PI) staining indicates membrane integrity, as it can only pass through compromised membranes of non-viable cells, giving red fluorescence. On the contrary, Syto-9 can pass through all cells despite of their membrane integrity, and binds to DNA/RNA by emitting green fluorescence.

[3] = S. aureus ATCC 6538, replicate 1, read-out: % Inhibition 1
[4] = S. aureus ATCC 6538, replicate 2, read-out: % Inhibition 2
[5] = S. aureus ATCC 6538, replicate 3, read-out: % Inhibition 3
[6] = S. aureus ATCC 6538, read-out: Mean % Inhibition
[7] = 100 µg/mL, S. aureus ATCC 6538, replicate 1, read-out: % Inhibition 1
[8] = 100 µg/mL, S. aureus ATCC 6538, replicate 2, read-out: % Inhibition 2
[9] = 100 µg/mL, S. aureus ATCC 6538, replicate 3, read-out: % Inhibition 3
[10] = 100 µg/mL, S. aureus ATCC 6538, read-out: Mean % Inhibition
[11] = at 100 μg/mL, biofilm of S. aureus, 24 hours, read-out: Antibiofilm Activity (% Inhibition ± SEM)
[12] = at 100 μg/mL, biofilm of S. aureus, 24 hours

SMILES: Cc1ccc2oc(=O)c(/C=N/Nc3nc(-c4cccc([N+](=O)[O-])c4)cs3)c(Cl)c2c1 [Compound 2, (E)-4-Chloro-6-methyl-3-((2-(4-(3-nitrophenyl)thiazol-2-yl)hydrazono)methyl)-2H-chromen-2-one]
- inhibition at 3.125 µg/mL [1, 3]: 4.05%
- inhibition at 3.125 µg/mL [1, 4]: 3.79%
- inhibition at 3.125 µg/mL [1, 5]: 4.17%
- inhibition at 3.125 µg/mL [1, 6]: 4%
- inhibition at 6.25 µg/mL [1, 3]: 3.29%
- inhibition at 6.25 µg/mL [1, 4]: 3.99%
- inhibition at 6.25 µg/mL [1, 5]: 3.49%
- inhibition at 6.25 µg/mL [1, 6]: 3.59%
- inhibition at 12.5 µg/mL [1, 3]: 1.73%
- inhibition at 12.5 µg/mL [1, 4]: 0.99%
- inhibition at 12.5 µg/mL [1, 5]: 2.54%
- inhibition at 12.5 µg/mL [1, 6]: 1.75%
- inhibition at 25 µg/mL [1, 3]: 1.79%
- inhibition at 25 µg/mL [1, 4]: 1.44%
- inhibition at 25 µg/mL [1, 5]: 1.99%
- inhibition at 25 µg/mL [1, 6]: 1.74%
- inhibition at 50 µg/mL [1, 3]: 27%
- inhibition at 50 µg/mL [1, 4]: 29.2%
- inhibition at 50 µg/mL [1, 5]: 28.5%
- inhibition at 50 µg/mL [1, 6]: 28.3%
- inhibition at 100 µg/mL [1, 7]: 95%
- inhibition at 100 µg/mL [1, 8]: 93.9%
- inhibition at 100 µg/mL [1, 9]: 93.6%
- inhibition at 100 µg/mL [1, 10]: 94.2%
- inhibition at 100 µg/mL [1, 11]: 90 ± 3.24%
- Antibiofilm Activity (% Inhibition ± SEM) [1, 12]: high potential to inhibit the biofilms
- Biofilm disruption seen by AFM (S. aureus biofilm): disrupt and degrade biofilm to varying degrees
- inhibition at 100 µg/mL (S. aureus): 15 ± 4.53%
- Antibacterial Activity (% Inhibition ± SEM) (S. aureus): low antibacterial effect
- Biofilm disruption seen by fluorescence microscopy [2]: Disruption on the surface of biofilm

SMILES: Cc1ccc2oc(=O)c(/C=N/Nc3nc(-c4ccc(C#N)cc4)cs3)c(Cl)c2c1 [Compound 3, (E)-4-(2-(2-((4-Chloro-6-methyl-2-oxo-2H-chromen-3-yl)methylene)hydrazinyl)thiazol-4-yl)benzonitrile]
- inhibition at 3.125 µg/mL [1, 3]: 12.7%
- inhibition at 3.125 µg/mL [1, 4]: 11.7%
- inhibition at 3.125 µg/mL [1, 5]: 13.9%
- inhibition at 3.125 µg/mL [1, 6]: 12.8%
- inhibition at 6.25 µg/mL [1, 3]: 22.7%
- inhibition at 6.25 µg/mL [1, 4]: 21.1%
- inhibition at 6.25 µg/mL [1, 5]: 22.5%
- inhibition at 6.25 µg/mL [1, 6]: 22.1%
- inhibition at 12.5 µg/mL [1, 3]: 26.9%
- inhibition at 12.5 µg/mL [1, 4]: 29.2%
- inhibition at 12.5 µg/mL [1, 5]: 27.4%
- inhibition at 12.5 µg/mL [1, 6]: 27.8%
- inhibition at 25 µg/mL [1, 3]: 55.9%
- inhibition at 25 µg/mL [1, 4]: 57.8%
- inhibition at 25 µg/mL [1, 5]: 56.6%
- inhibition at 25 µg/mL [1, 6]: 56.8%
- inhibition at 50 µg/mL [1, 3]: 74%
- inhibition at 50 µg/mL [1, 4]: 76%
- inhibition at 50 µg/mL [1, 5]: 77%
- inhibition at 50 µg/mL [1, 6]: 75.6%
- inhibition at 100 µg/mL [1, 7]: 93.2%
- inhibition at 100 µg/mL [1, 8]: 90.2%
- inhibition at 100 µg/mL [1, 9]: 93.1%
- inhibition at 100 µg/mL [1, 10]: 92.2%
- inhibition at 100 µg/mL [1, 11]: 91 ± 6.31%
- Antibiofilm Activity (% Inhibition ± SEM) [1, 12]: high potential to inhibit the biofilms
- Biofilm disruption seen by AFM (S. aureus biofilm): disrupt and degrade biofilm to varying degrees
- inhibition at 100 µg/mL (S. aureus): 27 ± 6.41%
- Antibacterial Activity (% Inhibition ± SEM) (S. aureus): low antibacterial effect
- Biofilm disruption seen by fluorescence microscopy [2]: mild to extensive biofilm disruption and degradation

SMILES: Cc1ccc2oc(=O)c(/C=N/Nc3nc(-c4ccc([N+](=O)[O-])cc4)cs3)c(Cl)c2c1 [Compound 4, (E)-4-Chloro-6-methyl-3-((2-(4-(4-nitrophenyl)thiazol-2-yl)hydrazono)methyl)-2H-chromen-2-one]
- inhibition at 3.125 µg/mL [1, 3]: 2.92%
- inhibition at 3.125 µg/mL [1, 4]: 1.79%
- inhibition at 3.125 µg/mL [1, 5]: 3.04%
- inhibition at 3.125 µg/mL [1, 6]: 2.58%
- inhibition at 6.25 µg/mL [1, 3]: 7.04%
- inhibition at 6.25 µg/mL [1, 4]: 8.05%
- inhibition at 6.25 µg/mL [1, 5]: 9.02%
- inhibition at 6.25 µg/mL [1, 6]: 8.04%
- inhibition at 12.5 µg/mL [1, 3]: 6.69%
- inhibition at 12.5 µg/mL [1, 4]: 5.79%
- inhibition at 12.5 µg/mL [1, 5]: 5.68%
- inhibition at 12.5 µg/mL [1, 6]: 6.05%
- inhibition at 25 µg/mL [1, 3]: 29.1%
- inhibition at 25 µg/mL [1, 4]: 30.1%
- inhibition at 25 µg/mL [1, 5]: 28.1%
- inhibition at 25 µg/mL [1, 6]: 29.1%
- inhibition at 50 µg/mL [1, 3]: 66%
- inhibition at 50 µg/mL [1, 4]: 67%
- inhibition at 50 µg/mL [1, 5]: 66.1%
- inhibition at 50 µg/mL [1, 6]: 66.4%
- inhibition at 100 µg/mL [1, 7]: 86.8%
- inhibition at 100 µg/mL [1, 8]: 84.3%
- inhibition at 100 µg/mL [1, 9]: 86.6%
- inhibition at 100 µg/mL [1, 10]: 85.9%
- inhibition at 100 µg/mL [1, 11]: 90 ± 9.3%
- Antibiofilm Activity (% Inhibition ± SEM) [1, 12]: high potential to inhibit the biofilms
- Biofilm disruption seen by AFM (S. aureus biofilm): disrupt and degrade biofilm to varying degrees
- inhibition at 100 µg/mL (S. aureus): 21 ± 4.51%
- Antibacterial Activity (% Inhibition ± SEM) (S. aureus): low antibacterial effect
- Biofilm disruption seen by fluorescence microscopy [2]: mild to extensive biofilm disruption and degradation

SMILES: Cc1ccc2oc(=O)c(/C=N/Nc3nc(-c4ccc(Cl)cc4Cl)cs3)c(Cl)c2c1 [Compound 5, (E)-4-Chloro-3-((2-(4-(2,4-dichlorophenyl)thiazol-2-yl)hydrazono)methyl)-6-methyl-2H-chromen-2-one]
- Antibiofilm Activity (% Inhibition ± SEM) [1, 12]: No Inhibition
- inhibition at 100 µg/mL (S. aureus): 36 ± 8.77%

SMILES: C/C(=N\Nc1nc(-c2ccccc2O)cs1)c1cc2ccccc2oc1=O [Compound 15, (E)-3-(1-(2-(4-(2-Hydroxyphenyl)thiazol-2-yl)hydrazono)ethyl)-2H-chromen-2-one]
- inhibition at 100 µg/mL [1, 11]: 34 ± 5.11%
- Antibiofilm Activity (% Inhibition ± SEM) [1, 12]: induced biofilm inhibition
- inhibition at 100 µg/mL (S. aureus): 73 ± 7.16%

SMILES: C/C(=N\Nc1nc(-c2ccc(Cl)cc2)cs1)c1cc2ccccc2oc1=O [Compound 11, (E)-3-(1-(2-(4-(4-Chlorophenyl)thiazol-2-yl)hydrazono)ethyl)-2H-chromen-2-one]
- inhibition at 100 µg/mL [1, 11]: 70 ± 7.09%
- Antibiofilm Activity (% Inhibition ± SEM) [1, 12]: induced biofilm inhibition; also recorded: dual anti-bacterial and anti-biofilm effect
- inhibition at 100 µg/mL (S. aureus): 88 ± 4.32%
